Among the data in US12539292B2, “BRM targeting compounds and associated methods of use” (Arvinas Operations, Inc., priority 2018, dated 2026) are DC50 and Dmax values, retold here.

Where two headings read alike, the source gives them in different places.

This experiment addresses T1, BRM (Homo sapiens, UniProt P51531).
T1 construct: In-Cell Western Screen of BRM Degradation in SW1573 Cells; endogenous in cells; host or cells: SW1573
In words: In-cell Western screen of BRM degradation in SW1573 cells (Dmax and DC50). In kind it is cell-based. The gist of the method:
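SW1573 cells were treated overnight (18-20 hours) with compound at 0.1% final DMSO. They were then PFA-fixed, permeabilised with Triton X-100 and immunostained with 800 nm/680 nm secondary antibodies. BRM signal was quantified by LI-COR in-cell Western imaging to derive Dmax and DC50.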

The mark [1] stands for this setting: BRM degradation, SW1573 cells, read-out: DC50.
[2] abbreviates: BRM degradation, SW1573 cells, when tested at the top concentration of between 0.3 and 10 μM, read-out: Dmax (%) (% degraded).
[3] abbreviates: BRM degradation, read-out: BRM DC50.
Setting [4] is: BRM degradation, SW1573 cells, tested at the top concentration of between 0.3 and 10 μM, read-out: Dmax (%) (% degraded).
Setting [5] is: BRM degradation, SW1573 cells, Table 2D, read-out: **Dmax (%) (% degraded).
The mark [6] stands for this setting: BRM degradation, SW1573 cells, Table 2D, read-out: *DC50.

T1 sequence (P51531 whole entry): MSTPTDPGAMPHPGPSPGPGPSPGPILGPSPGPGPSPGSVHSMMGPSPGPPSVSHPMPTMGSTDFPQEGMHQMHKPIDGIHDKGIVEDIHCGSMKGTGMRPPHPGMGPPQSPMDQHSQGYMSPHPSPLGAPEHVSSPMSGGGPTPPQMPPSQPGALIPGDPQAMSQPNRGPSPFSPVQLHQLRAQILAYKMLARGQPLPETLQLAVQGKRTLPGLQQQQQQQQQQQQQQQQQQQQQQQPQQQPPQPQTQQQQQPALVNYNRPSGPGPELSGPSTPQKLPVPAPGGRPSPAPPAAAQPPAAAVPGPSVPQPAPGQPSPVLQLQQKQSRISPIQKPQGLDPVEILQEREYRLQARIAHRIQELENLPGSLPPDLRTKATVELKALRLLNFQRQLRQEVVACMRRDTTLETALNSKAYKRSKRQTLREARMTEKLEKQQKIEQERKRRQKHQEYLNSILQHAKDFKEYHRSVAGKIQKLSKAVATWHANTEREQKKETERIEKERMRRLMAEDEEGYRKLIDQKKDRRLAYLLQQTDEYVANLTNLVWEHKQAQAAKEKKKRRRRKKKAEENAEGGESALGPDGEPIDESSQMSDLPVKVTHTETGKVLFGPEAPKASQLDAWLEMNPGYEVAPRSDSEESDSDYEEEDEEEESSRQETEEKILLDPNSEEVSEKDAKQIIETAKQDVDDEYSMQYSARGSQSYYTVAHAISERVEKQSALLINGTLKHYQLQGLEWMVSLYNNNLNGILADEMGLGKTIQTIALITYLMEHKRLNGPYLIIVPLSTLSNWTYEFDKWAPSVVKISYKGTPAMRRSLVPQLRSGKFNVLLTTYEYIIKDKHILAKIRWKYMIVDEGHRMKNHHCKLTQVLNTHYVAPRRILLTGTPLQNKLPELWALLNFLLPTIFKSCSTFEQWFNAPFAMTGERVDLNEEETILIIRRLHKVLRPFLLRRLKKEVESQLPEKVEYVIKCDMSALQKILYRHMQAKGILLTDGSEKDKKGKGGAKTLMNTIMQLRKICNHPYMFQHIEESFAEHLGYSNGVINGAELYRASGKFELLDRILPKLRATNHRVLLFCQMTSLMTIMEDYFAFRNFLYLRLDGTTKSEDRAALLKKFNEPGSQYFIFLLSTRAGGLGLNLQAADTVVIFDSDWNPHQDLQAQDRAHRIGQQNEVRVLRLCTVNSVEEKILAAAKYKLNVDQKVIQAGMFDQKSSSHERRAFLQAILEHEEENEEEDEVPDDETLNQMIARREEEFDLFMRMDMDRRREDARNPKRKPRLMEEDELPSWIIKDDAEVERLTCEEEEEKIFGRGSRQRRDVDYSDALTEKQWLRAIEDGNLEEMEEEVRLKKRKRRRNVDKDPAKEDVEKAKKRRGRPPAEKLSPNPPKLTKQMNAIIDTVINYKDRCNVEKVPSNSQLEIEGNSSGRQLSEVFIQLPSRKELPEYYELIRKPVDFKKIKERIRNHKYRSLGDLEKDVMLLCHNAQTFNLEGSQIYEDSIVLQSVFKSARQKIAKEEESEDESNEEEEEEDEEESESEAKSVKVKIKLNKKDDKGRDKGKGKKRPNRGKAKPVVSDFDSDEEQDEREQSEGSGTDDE

For the compound `Cc1ncsc1-c1ccc([C@H](C)NC(=O)[C@@H]2C[C@@H](O)CN2C(=O)[C@@H](c2cc(N3CCC(CN4CCC(O[C@H]5C[C@H](Oc6cc(N7CCN(c8cc(-c9ccccc9O)nnc8N)CC7)ccn6)C5)CC4)CC3)no2)C(C)C)cc1` [compound 693, (2S,4R)-1-((R)-2-(3-(4-((4-((1r,3r)-3-((4-(4-(3-amino-6-(2-hydroxyphenyl)pyridazin-4-yl)piperazin-1-yl)pyridin-2-yl)oxy)cyclobutoxy)piperidin-1-yl)methyl)piperidin-1-yl)isoxazol-5-yl)-3-methylbutanoyl)-4-hydroxy-N-((S)-1-(4-(4-methylthiazol-5-yl)phenyl)ethyl)pyrrolidine-2-carboxamide], the 50% degradation concentration (DC50) (commonly the midpoint of the concentration-degradation curve) (BRM degradation, SW1573 cells) is < 2.5 nM.
Turning to `Cc1ncsc1-c1ccc([C@H](C)NC(=O)[C@@H]2C[C@@H](O)CN2C(=O)[C@@H](c2cc(CCCN3CCN(CCOc4cc(N5C6CCC5CN(c5cc(-c7ccccc7O)nnc5N)C6)ccn4)CC3)no2)C(C)C)cc1` [compound 134, (2S,4R)-1-((2R)-2-(3-(3-(4-(2-((4-(3-(3-amino-6-(2-hydroxyphenyl)pyridazin-4-yl)-3,8-diazabicyclo[3.2.1]octan-8-yl)pyridin-2-yl)oxy)ethyl)piperazin-1-yl)propyl)isoxazol-5-yl)-3-methylbutanoyl)-4-hydroxy-N-((S)-1-(4-(4-methylthiazol-5-yl)phenyl)ethyl)pyrrolidine-2-carboxamide], under setting [1], the DC50 was < 2.5 nM. In addition, the Dmax (usually the largest share of the target that was removed) under setting [2] is > 75%.
In the case of `Cc1cc([C@@H](C(=O)N2C[C@H](O)C[C@H]2C(=O)N[C@@H](COCCOCCNc2ccc(-c3ccccc3O)nn2)c2ccc(-c3scnc3C)cc2)C(C)C)on1` [compound 525, (2S,4R)-4-hydroxy-N-((R)-2-(2-(2-((6-(2-hydroxyphenyl)pyridazin-3-yl)amino)ethoxy)ethoxy)-1-(4-(4-methylthiazol-5-yl)phenyl)ethyl)-1-((S)-3-methyl-2-(3-methylisoxazol-5-yl)butanoyl)pyrrolidine-2-carboxamide], under setting [3], the DC50 is > 30 nM.
As for `COc1cc(-c2scnc2C)ccc1[C@H](C)NC(=O)[C@@H]1C[C@@H](O)CN1C(=O)[C@@H](c1cc(OCCN2CCC(O[C@H]3C[C@H](Oc4cc(N5C6CCC5CN(c5cc(-c7ccccc7O)nnc5N)C6)ccn4)C3)CC2)no1)C(C)C` [compound 202, (2S,4R)-1-((2R)-2-(3-(2-(4-((1r,3R)-3-((4-(3-(3-amino-6-(2-hydroxyphenyl)pyridazin-4-yl)-3,8-diazabicyclo[3.2.1]octan-8-yl)pyridin-2-yl)oxy)cyclobutoxy)piperidin-1-yl)ethoxy)isoxazol-5-yl)-3-methylbutanoyl)-4-hydroxy-N-((S)-1-(2-methoxy-4-(4-methylthiazol-5-yl)phenyl)ethyl)pyrrolidine-2-carboxamide], the DC50 under setting [1] was < 2.5 nM. Also, the Dmax under setting [4] is > 75%.
As for `Cc1ncsc1-c1ccc([C@H](C)NC(=O)[C@@H]2C[C@@H](O)CN2C(=O)[C@@H](c2cc(OCC[C@H]3CCN(C[C@H]4C[C@H](Oc5cc(N6C7CCC6CN(c6cc(-c8ccccc8O)nnc6N)C7)ccn5)C4)[C@@H](C)C3)no2)C(C)C)cc1` [compound 548, (2S,4R)-1-((2R)-2-(3-(2-((2S,4S)-1-(((1r,3S)-3-((4-(3-(3-amino-6-(2-hydroxyphenyl)pyridazin-4-yl)-3,8-diazabicyclo[3.2.1]octan-8-yl)pyridin-2-yl)oxy)cyclobutyl)methyl)-2-methylpiperidin-4-yl)ethoxy)isoxazol-5-yl)-3-methylbutanoyl)-4-hydroxy-N-((S)-1-(4-(4-methylthiazol-5-yl)phenyl)ethyl)pyrrolidine-2-carboxamide], the Dmax under setting [5] was > 75%. In addition, under setting [6], the DC50 was < 2.5 nM.
The corresponding values for `Cc1ncsc1-c1ccc([C@H](C)NC(=O)[C@@H]2C[C@@H](O)CN2C(=O)[C@@H](c2cc(N3CCN(CCN4CCC(C(C)n5cc(-c6cc(-c7ccccc7O)nnc6N)cn5)CC4)CC3)no2)C(C)C)cc1` (stereo partly drawn) [compound 591, (2S,4R)-1-((2R)-2-(3-(4-(2-(4-(1-(4-(3-amino-6-(2-hydroxyphenyl)pyridazin-4-yl)-1H-pyrazol-1-yl)ethyl)piperidin-1-yl)ethyl)piperazin-1-yl)isoxazol-5-yl)-3-methylbutanoyl)-4-hydroxy-N-((S)-1-(4-(4-methylthiazol-5-yl)phenyl)ethyl)pyrrolidine-2-carboxamide] are > 75% and < 2.5 nM.
In the case of `Cc1ncsc1-c1ccc([C@H](C)NC(=O)[C@@H]2C[C@@H](O)CN2C(=O)[C@@H](c2cc(OCC(F)(F)CN3CCC(O[C@H]4C[C@H](Oc5cc(N6C7CCC6CN(c6cc(-c8ccccc8O)nnc6N)C7)ccn5)C4)CC3)no2)C(C)C)cc1` [compound 484, (2S,4R)-1-((2R)-2-(3-(3-(4-((1r,3R)-3-((4-(3-(3-amino-6-(2-hydroxyphenyl)pyridazin-4-yl)-3,8-diazabicyclo[3.2.1]octan-8-yl)pyridin-2-yl)oxy)cyclobutoxy)piperidin-1-yl)-2,2-difluoropropoxy)isoxazol-5-yl)-3-methylbutanoyl)-4-hydroxy-N-((S)-1-(4-(4-methylthiazol-5-yl)phenyl)ethyl)pyrrolidine-2-carboxamide], the Dmax (SW1573, % degraded, when tested at the top concentration of between 0.3 and 10 μM, read-out: BRM Dmax (%)) is > 75%. For the same compound, for the setting “target protein degradation, read-out: BRM DC50”, the DC50 was < 2.5 nM.
On to `Cc1ncsc1-c1ccc(CNC(=O)[C@@H]2C[C@@H](O)CN2C(=O)[C@@H](NC(=O)COCCCc2ccc(C(C)n3cc(-c4cc(-c5ccccc5O)nnc4N)cn3)cc2)C(C)(C)C)cc1` (stereo partly drawn) [compound 33, (2S,4R)-1-[(2S)-2-(2-[3-[4-(1-[4-[3-amino-6-(2-hydroxyphenyl)pyridazin-4-yl]-1H-pyrazol-1-yl]ethyl)phenyl]propoxy]acetamido)-3,3-dimethylbutanoyl]-4-hydroxy-N-[[4-(4-methyl-1,3-thiazol-5-yl)phenyl]methyl]pyrrolidine-2-carboxamide], for which the half-maximal degradation concentration (DC50) under setting [1] fell in the range of 2.5 to 10 nM. In addition, the Dmax under setting [2] is > 75%.
As for `Cc1cc([C@H](C(=O)N2C[C@H](O)C[C@H]2C(=O)N[C@@H](C)c2ccc(-c3scnc3C)cc2)[C@H](C)COCCOc2cc(N3C4CCC3CN(c3cc(-c5ccccc5O)nnc3N)C4)ccn2)on1` [compound 514, (2S,4R)-1-((2R,3S)-4-(2-((4-(3-(3-amino-6-(2-hydroxyphenyl)pyridazin-4-yl)-3,8-diazabicyclo[3.2.1]octan-8-yl)pyridin-2-yl)oxy)ethoxy)-3-methyl-2-(3-methylisoxazol-5-yl)butanoyl)-4-hydroxy-N-((S)-1-(4-(4-methylthiazol-5-yl)phenyl)ethyl)pyrrolidine-2-carboxamide], the DC50 under setting [3] was > 30 nM.
In the case of `CC(C)[C@@H](C(=O)N1C[C@H](O)C[C@H]1C(=O)N[C@@H](C)c1ccc(-c2scnc2CO)cc1)c1cc(OCCN2CCC(O[C@H]3C[C@H](Oc4cc(N5C6CCC5CN(c5cc(-c7ccccc7O)nnc5N)C6)ccn4)C3)CC2)no1` [compound 211, (2S,4R)-1-((2R)-2-(3-(2-(4-((1r,3R)-3-((4-(3-(3-amino-6-(2-hydroxyphenyl)pyridazin-4-yl)-3,8-diazabicyclo[3.2.1]octan-8-yl)pyridin-2-yl)oxy)cyclobutoxy)piperidin-1-yl)ethoxy)isoxazol-5-yl)-3-methylbutanoyl)-4-hydroxy-N-((S)-1-(4-(4-(hydroxymethyl)thiazol-5-yl)phenyl)ethyl)pyrrolidine-2-carboxamide], under setting [1], the DC50 was < 2.5 nM. Further, under setting [4], the maximal degradation (Dmax) was > 75%.
Consider `COC[C@@H](NC(=O)[C@@H]1C[C@@H](O)CN1C(=O)[C@@H](c1cc(N2CCC(CN3CCC(O[C@H]4C[C@H](Oc5cc(N6C7CCC6CN(c6cc(-c8ccccc8O)nnc6N)C7)ccn5)C4)CC3)CC2)no1)C(C)C)c1ccc(-c2scnc2C)cc1` [compound 667, (2S,4R)-1-((2R)-2-(3-(4-((4-((1r,3r)-3-((4-(3-(3-amino-6-(2-hydroxyphenyl)pyridazin-4-yl)-3,8-diazabicyclo[3.2.1]octan-8-yl)pyridin-2-yl)oxy)cyclobutoxy)piperidin-1-yl)methyl)piperidin-1-yl)isoxazol-5-yl)-3-methylbutanoyl)-4-hydroxy-N-((S)-2-methoxy-1-(4-(4-methylthiazol-5-yl)phenyl)ethyl)pyrrolidine-2-carboxamide], for which, under setting [1], the DC50 lay within 10 to 30 nM. Besides, the greatest degradation seen (Dmax) (BRM degradation, SW1573 cells, read-out: Dmax (% degraded)) was > 75%.
For the compound `Cc1ncsc1-c1ccc([C@H](C)NC(=O)[C@@H]2C[C@@H](O)CN2C(=O)[C@@H](c2cc(OC/C=C/c3ccc(O[C@H]4C[C@H](Oc5cc(N6C7CCC6CN(c6cc(-c8ccccc8O)nnc6N)C7)ccn5)C4)cn3)no2)C(C)C)cn1` [compound 207, (2S,4R)-1-((2R)-2-(3-(((E)-3-(5-((1r,3R)-3-((4-(3-(3-amino-6-(2-hydroxyphenyl)pyridazin-4-yl)-3,8-diazabicyclo[3.2.1]octan-8-yl)pyridin-2-yl)oxy)cyclobutoxy)pyridin-2-yl)allyl)oxy)isoxazol-5-yl)-3-methylbutanoyl)-4-hydroxy-N-((S)-1-(6-(4-methylthiazol-5-yl)pyridin-3-yl)ethyl)pyrrolidine-2-carboxamide], the DC50 under setting [1] is < 2.5 nM. For the same compound, the Dmax under setting [4] was > 75%.
Consider `Cc1ncsc1-c1ccc(CNC(=O)[C@@H]2C[C@@H](O)CN2C(=O)[C@@H](c2cc(OCCOCCOCCOCCn3cc(-c4cc(-c5ccccc5O)nnc4N)cn3)no2)C(C)C)cc1` [compound 17, (2S,4R)-1-((R)-2-(3-(2-(2-(2-(2-(4-(3-amino-6-(2-hydroxyphenyl)pyridazin-4-yl)-1H-pyrazol-1-yl)ethoxy)ethoxy)ethoxy)ethoxy)isoxazol-5-yl)-3-methylbutanoyl)-4-hydroxy-N-(4-(4-methylthiazol-5-yl)benzyl)pyrrolidine-2-carboxamide], for which the DC50 under setting [1] lay in the range of 2.5 to 10 nM. Moreover, under setting [2], the Dmax was > 75%.
